In patent US20160152579A1, “OXAZOLIDINONE DERIVATIVES AS PPAR LIGANDS” (CONSEJO SUPERIOR DE INVESTIGACIONES CIENTÍFICAS (CSIC), priority 2013, published 2016):

Key:
[1] = target: T1, human PPAR-alpha receptor (Homo sapiens, UniProt Q07869); assay: Cell transfection and luciferase reporter gene assay, PPAR-alpha activation in MCF-7 cells; assay type: cell-based; details: luciferase reporter, 16 h treatment
T1 construct: expressed in transfected cells; host or cells: MCF-7 human breast cancer cells, pSG5 expression vector
T1 sequence (Q07869 whole entry): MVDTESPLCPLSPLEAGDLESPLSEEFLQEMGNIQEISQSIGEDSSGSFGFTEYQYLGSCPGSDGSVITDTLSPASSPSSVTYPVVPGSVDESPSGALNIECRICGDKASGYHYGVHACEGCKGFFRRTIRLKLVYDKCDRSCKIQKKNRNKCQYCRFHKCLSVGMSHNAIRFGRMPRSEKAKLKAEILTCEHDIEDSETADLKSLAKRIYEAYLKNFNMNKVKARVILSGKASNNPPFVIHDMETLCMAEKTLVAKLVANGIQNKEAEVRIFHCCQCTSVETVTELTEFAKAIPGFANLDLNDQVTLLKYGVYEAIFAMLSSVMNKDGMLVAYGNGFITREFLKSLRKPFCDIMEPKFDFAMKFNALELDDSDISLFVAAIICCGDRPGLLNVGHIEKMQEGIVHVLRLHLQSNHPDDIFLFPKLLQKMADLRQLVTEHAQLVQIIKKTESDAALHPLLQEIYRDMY
T1 sequence (P19793 whole entry partner): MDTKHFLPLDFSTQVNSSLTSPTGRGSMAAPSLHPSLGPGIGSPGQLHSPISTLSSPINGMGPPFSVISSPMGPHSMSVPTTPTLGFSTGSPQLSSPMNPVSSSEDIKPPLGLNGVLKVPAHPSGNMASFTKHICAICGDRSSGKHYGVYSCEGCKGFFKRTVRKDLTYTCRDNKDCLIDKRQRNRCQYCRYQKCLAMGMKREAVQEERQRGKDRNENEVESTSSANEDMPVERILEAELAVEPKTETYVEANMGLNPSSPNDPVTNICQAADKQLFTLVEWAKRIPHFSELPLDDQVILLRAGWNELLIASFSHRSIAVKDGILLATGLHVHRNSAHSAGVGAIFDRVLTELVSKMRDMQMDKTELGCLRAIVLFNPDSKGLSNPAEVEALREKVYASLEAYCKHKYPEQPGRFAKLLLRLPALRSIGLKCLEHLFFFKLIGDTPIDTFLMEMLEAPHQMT
T1 sequence (Q15788 whole entry partner): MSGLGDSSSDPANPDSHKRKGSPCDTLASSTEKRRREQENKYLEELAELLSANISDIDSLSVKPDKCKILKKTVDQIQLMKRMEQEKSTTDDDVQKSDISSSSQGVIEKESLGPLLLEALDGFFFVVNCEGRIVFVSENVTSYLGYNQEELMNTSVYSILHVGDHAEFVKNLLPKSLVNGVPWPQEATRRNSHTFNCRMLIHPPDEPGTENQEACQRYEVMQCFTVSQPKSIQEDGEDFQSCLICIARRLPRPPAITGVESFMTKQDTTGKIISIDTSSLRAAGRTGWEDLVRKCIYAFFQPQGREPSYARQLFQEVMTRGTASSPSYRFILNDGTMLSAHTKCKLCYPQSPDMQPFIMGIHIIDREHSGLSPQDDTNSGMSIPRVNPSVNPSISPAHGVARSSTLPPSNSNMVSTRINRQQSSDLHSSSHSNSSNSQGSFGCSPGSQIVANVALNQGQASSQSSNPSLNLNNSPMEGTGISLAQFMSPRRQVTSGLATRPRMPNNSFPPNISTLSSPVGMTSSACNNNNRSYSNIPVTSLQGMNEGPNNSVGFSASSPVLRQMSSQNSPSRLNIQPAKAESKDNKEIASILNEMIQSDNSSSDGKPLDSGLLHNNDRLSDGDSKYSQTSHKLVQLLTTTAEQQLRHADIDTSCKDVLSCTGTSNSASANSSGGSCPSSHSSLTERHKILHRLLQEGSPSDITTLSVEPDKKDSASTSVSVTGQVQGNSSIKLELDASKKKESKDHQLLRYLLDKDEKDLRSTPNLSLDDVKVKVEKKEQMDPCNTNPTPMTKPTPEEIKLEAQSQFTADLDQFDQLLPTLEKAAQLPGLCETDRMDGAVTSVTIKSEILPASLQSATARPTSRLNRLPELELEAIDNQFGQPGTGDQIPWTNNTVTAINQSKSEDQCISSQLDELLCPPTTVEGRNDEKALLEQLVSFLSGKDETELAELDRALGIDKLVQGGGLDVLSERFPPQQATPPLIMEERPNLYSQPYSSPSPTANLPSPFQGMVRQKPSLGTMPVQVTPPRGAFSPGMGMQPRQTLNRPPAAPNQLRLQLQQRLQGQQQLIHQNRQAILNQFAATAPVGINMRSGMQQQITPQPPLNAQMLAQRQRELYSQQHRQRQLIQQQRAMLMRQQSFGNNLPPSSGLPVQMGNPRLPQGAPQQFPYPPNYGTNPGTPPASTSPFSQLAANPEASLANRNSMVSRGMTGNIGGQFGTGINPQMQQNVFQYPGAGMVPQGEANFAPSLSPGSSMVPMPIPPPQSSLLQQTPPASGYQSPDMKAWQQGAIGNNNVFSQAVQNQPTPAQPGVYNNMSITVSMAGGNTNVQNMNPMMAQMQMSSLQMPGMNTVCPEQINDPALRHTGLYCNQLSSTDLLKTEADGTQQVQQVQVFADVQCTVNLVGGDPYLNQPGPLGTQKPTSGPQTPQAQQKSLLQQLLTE
Experimental: (§1) The reporter gene assay is an in vitro method used to determine and quantify the existence of physical interactions between proteins, useful for confirming in this case the interaction of the transcription factors PPAR-alpha with co-activator SRC-1, and PPAR-gamma with PPRE in MCF-7 cells.
(§2) For the in vitro experiments, with cell culture all the compounds were dissolved and diluted in dimethylsulfoxide (DMSO) (Sigma Aldrich Spain).
(§3) DNA constructs: Eukaryotic pSG5 expression vector (4100 base pairs, Stratagene Co.) was used as the cDNA expression vehicle for human PPAR-alpha receptor and PPAR-gamma receptor. This construction was used for the in vivo overexpression of the protein in mammalian cells.
(§4) Four copies of the human CPTI gene DR1-type RE (sequence […]) (Ref: Tinahones F J, Moreno-Santos I, Vendrell J, Chacon M R, Garrido-Sanchez L, Garcia-Wasntes E, and Macias-Gonzalez M. Obesity 2012, 20: 488-497) were individually fused with the thymidine kinase promoter in the pGL-2 Basic vector (5598 base pairs, Promega Co.), which lacks a eukaryotic promoter and contains a firefly (Photinus pyralis) luciferase reporter gene. This vector is widely used in the quantitative analysis of factors capable of regulating gene expression in mammalian cells. This pGL-2 Basic vector also has an ampicillin resistance region (gene for β-lactamase). […]

[2] = target: T2, human PPAR-gamma receptor (Homo sapiens, UniProt P37231); assay: Cell transfection and luciferase reporter gene assay, PPAR-gamma activation in MCF-7 cells; assay type: cell-based; details: luciferase reporter, 16 h treatment
T2 construct: expressed in transfected cells; host or cells: MCF-7 human breast cancer cells, pSG5 expression vector
T2 sequence (P37231 1-505): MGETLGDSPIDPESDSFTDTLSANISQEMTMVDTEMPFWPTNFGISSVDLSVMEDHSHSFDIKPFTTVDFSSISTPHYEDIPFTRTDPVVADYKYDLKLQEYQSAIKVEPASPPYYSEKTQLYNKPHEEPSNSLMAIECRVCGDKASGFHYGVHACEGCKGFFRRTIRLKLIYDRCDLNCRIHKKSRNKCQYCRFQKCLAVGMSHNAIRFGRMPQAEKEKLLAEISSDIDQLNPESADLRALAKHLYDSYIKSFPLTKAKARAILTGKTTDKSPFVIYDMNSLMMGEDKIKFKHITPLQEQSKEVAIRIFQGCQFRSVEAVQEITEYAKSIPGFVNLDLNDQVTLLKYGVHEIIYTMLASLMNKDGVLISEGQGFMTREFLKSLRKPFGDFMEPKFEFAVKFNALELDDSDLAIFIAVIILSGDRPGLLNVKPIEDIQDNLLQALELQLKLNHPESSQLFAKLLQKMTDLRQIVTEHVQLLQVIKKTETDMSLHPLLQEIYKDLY
Experimental: as §1, §2, §3, §4

[3] = tested on: Male Wistar albino rats; assay: In vivo assay on food ingestion, acute treatment; parameters: species or system Rattus Norvegicus; details: for course of the effect on food ingestion over time (30-240 min) / reduction of food ingestion: rats fasted 24 h
Experimental: Male Wistar albino rats (Rattus Norvegicus) from Charles Rivers Laboratories España, S. A. (Barcelona, Spain), were used, having weights ranging between 300-350 g at the start of the experiments. The animals were caged individually, in controlled temperature (22° C.) and moisture (55%) conditions under a 12-hour light/dark cycle (light off from 8:00 AM to 8:00 PM). The rats had free access to food and water in their corresponding cages. All the training and experimental sessions were carried out after 8:00 PM hours.
All the drugs were prepared in fresh conditions in a solution consisting of 5% Tween-80 in sterile physiological serum. The different doses were prepared in different vials such that Tween-80 was added after weighing the necessary amount of compound. The compound, with its corresponding volume of surfactant, was sonicated and homogenized (with the aid of a magnetic stirrer) for 15-30 minutes. Then, the necessary volume of serum was added until completing the solution.
The compounds were administered intraperitoneally (i.p.) in an acute manner in an administration volume of 1 ml per kg of animal.
Before starting the ingestion experiments, the animals were habituated to being handled. For this purpose, 48-72 hours before each experimental session, the rats were placed in cages where the base material (sawdust) was removed, and small containers with food were placed in the cages for 4 hours. After this initial habituation phase, the animals were deprived of food for 24 hours, always having free access to water.
After said fasting period, the different treatment groups were established, and the base material was removed from the cages, weighing the animals and weighing the small containers with food (commercial laboratory feed). Additionally, the water container was weighed. 15 minutes after administering the compounds, the respective weighed food container was given to each animal, and it was again weighed at different times (30, 60, 120 and 240 minutes). In one case it was weighed 24 hours after being given.
Food consumption was represented as relative accumulated consumption (g of food per kg of animal). The water containers were also weighed at the end of the experiment.

EC50 [1]	EC50 [2]	SMILES	course of the effect on food ingestion over time (30-240 min) ([3]; acute i.p. administration)	reduction of food ingestion ([3]; effective dose 3.0 mg/kg i.p., FIG. 1)	effect on accumulated food ingestion 24 hours after administration ([3]; 24 h after i.p. administration, FIG. 3)	dose dependence of the effect on food ingestion ([3]; acute i.p. administration, FIG. 2)	reduction of food ingestion ([3]; effective dose 1.0 mg/kg i.p., FIG. 2)
670 ± 157 nM	1290 nM	CC(C)(C)c1ccc(CNC(=O)c2ccc(NC(=O)c3cccc(CN4C(=O)OC[C@H]4Cc4ccccc4)c3)cc2)cc1 [Compound 1, (R)-3-((4-benzyl-2-oxooxazolidin-3-yl)methyl)-N-(4-((4-(tert-butyl)benzyl)carbamoyl)phenyl)benzamide]	effect disappearing 240 minutes after the administration	about 50%			
821 ± 139 nM	1620 nM	CCCCCNC(=O)c1ccc(NC(=O)c2cccc(CN3C(=O)OC[C@H]3Cc3ccccc3)c2)cc1 [Compound 5, (R)-3-((4-benzyl-2-oxooxazolidin-3-yl)methyl)-N-(4-(pentylcarbamoyl)phenyl)benzamide]	effect maintained over time after 240 minutes		still has an effect 24 hours after administration	active in a dose-dependent manner	about 50%
